{"source": "ChEMBL document CHEMBL3751755", "about": "“Developing steroidal aromatase inhibitors-an effective armament to win the battle against breast cancer” (Eur J Med Chem, 2015)"}
{"biological_target": "T1, Aromatase (Homo sapiens, UniProt P11511)", "T1 sequence (P11511 whole entry)": "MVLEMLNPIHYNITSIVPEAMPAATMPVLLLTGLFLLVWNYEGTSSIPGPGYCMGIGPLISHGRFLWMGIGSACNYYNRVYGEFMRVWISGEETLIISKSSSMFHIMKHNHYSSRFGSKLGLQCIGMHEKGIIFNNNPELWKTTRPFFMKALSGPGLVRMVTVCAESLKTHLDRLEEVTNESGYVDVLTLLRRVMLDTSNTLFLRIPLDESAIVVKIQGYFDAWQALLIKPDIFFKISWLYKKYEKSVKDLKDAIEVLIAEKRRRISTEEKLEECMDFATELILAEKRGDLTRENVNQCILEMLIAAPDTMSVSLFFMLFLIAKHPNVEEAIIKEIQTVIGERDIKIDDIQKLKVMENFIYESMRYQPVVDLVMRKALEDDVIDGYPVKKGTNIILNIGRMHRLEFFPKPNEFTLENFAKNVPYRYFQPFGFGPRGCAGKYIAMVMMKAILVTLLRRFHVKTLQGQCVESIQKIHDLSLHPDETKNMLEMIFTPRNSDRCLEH", "conditions": "not given", "units": {"Ki": "nM"}}
{"smiles": "CC1(C)C[C@@]2(C)C(=CC1=O)[C@H](Br)C[C@@H]1[C@@H]2CC[C@]2(C)C(=O)CC[C@@H]12", "Ki": 10}
{"smiles": "C[C@]12CCC(=O)C=C1CC[C@@H]1[C@@H]2CC[C@]2(C)C(=O)CC[C@@H]12", "note": "[ANDROSTENEDIONE]", "Ki": 35}
{"smiles": "C[C@]12CCC(=O)C=C1[C@@H](c1ccc(OS(N)(=O)=O)cc1)C[C@@H]1[C@@H]2CC[C@]2(C)C(=O)CC[C@@H]12", "Ki": 39}
{"smiles": "CCC1=C[C@@H]2[C@H](CC[C@]3(C)C(=O)CC[C@@H]23)[C@@]2(C)CCC(=O)C=C12", "Ki": 17}
{"smiles": "C[C@]12CC[C@H]3[C@@H](CC[C@]45O[C@H]4C(=O)CC[C@]35C)[C@@H]1CCC2=O", "Ki": 5000}
{"smiles": "C[C@]12CC[C@@H]3c4ccc(O)cc4[C@@H](Cc4ccccc4)C[C@H]3[C@@H]1CCC2=O", "Ki": 100}
{"smiles": "CCCC1=C[C@@H]2[C@H](CC[C@]3(C)C(=O)CC[C@@H]23)[C@@]2(C)CCC(=O)C=C12", "Ki": 17}
{"biological_target": "T1, Aromatase", "experiment": "(§1) Competitive inhibition of human aromatase extracted from placental microsomes by Dixon plot analysis in presence of [1beta-3H]androstenedione", "conditions": "read-out: Ki", "units": {"Ki": "nM"}}
{"smiles": "CC[C@]12CCC(=O)C=C1C=C[C@@H]1[C@@H]2CC[C@]2(C)C(=O)CC[C@@H]12", "Ki": 8.2}
{"smiles": "CC[C@]12C=CC(=O)C=C1CC[C@H]1[C@@H]3CCC(=O)[C@@]3(C)CC[C@@H]12", "Ki": 8.2}
{"smiles": "CC[C@]12CCC(=O)C=C1CC[C@@H]1[C@@H]2CC[C@]2(C)C(=O)CC[C@@H]12", "Ki": 8.2}
{"smiles": "C[C@]12CCCCC1=CC(=O)[C@@H]1[C@@H]2CC[C@]2(C)C(=O)CC[C@@H]12", "Ki": 143}
{"smiles": "CC[C@]12C=CC(=O)C=C1C=C[C@H]1[C@@H]3CCC(=O)[C@@]3(C)CC[C@@H]12", "Ki": 8.2}
{"smiles": "C[C@]12CC[C@H]3[C@@H](C(=O)C=C4CCCC[C@@]43CO)[C@@H]1CCC2=O", "Ki": 11100}
{"biological_target": "T1, Aromatase", "experiment": "as §1", "conditions": "read-out: Ki(app)", "units": {"Ki": "nM"}}
{"smiles": "CC[C@@H]1C[C@@H]2[C@H](CC[C@]3(C)C(=O)CC[C@@H]23)[C@@]2(C)C=CC(=O)C=C12", "Ki": 4.7}
{"smiles": "CCCCC[C@@H]1C[C@@H]2[C@H](CC[C@]3(C)C(=O)CC[C@@H]23)[C@@]2(C)C=CC(=O)C=C12", "Ki": 5}
{"smiles": "C[C@]12CC[C@H]3[C@@H](C(=O)C=C4CCCC[C@@]43O)[C@@H]1CCC2=O", "Ki": 1100}
{"smiles": "CC(=O)O[C@]12CCCCC1=CC(=O)[C@H]1[C@@H]3CCC(=O)[C@@]3(C)CC[C@@H]12", "Ki": 1100}
{"biological_target": "T1, Aromatase", "experiment": "(§2) Competitive inhibition of human aromatase extracted from placental microsomes by Dixon plot analysis in presence of [1beta-3H]AD", "conditions": "read-out: Ki", "units": {"Ki": "nM"}}
{"smiles": "C[C@]12CCC(=O)C=C1C(=O)C[C@@H]1[C@@H]2CC[C@]2(C)C(=O)[C@H](O)C[C@@H]12", "Ki": 1180}
{"smiles": "CO[C@H]1C=C2C(=O)C[C@@H]3[C@H](CC[C@]4(C)C(=O)CC[C@@H]34)[C@@]2(C)CC1", "Ki": 700}
{"smiles": "C[C@]12C[C@@H](Cl)C(=O)C=C1CC[C@@H]1[C@@H]2CC[C@]2(C)C(=O)CC[C@@H]12", "Ki": 45}
{"smiles": "C[C@]12C[C@@H](O)C(=O)C=C1CC[C@@H]1[C@@H]2CC[C@]2(C)C(=O)CC[C@@H]12", "Ki": 670}
{"smiles": "CO[C@@H]1C[C@@]2(C)C(=CC1=O)CC[C@@H]1[C@@H]2CC[C@]2(C)C(=O)CC[C@@H]12", "Ki": 670}
{"biological_target": "T1, Aromatase", "experiment": "as §2", "conditions": "read-out: Ki(app)", "units": {"Ki": "nM"}}
{"smiles": "C[C@]12CCC(=O)C=C1C(=O)C[C@@H]1[C@@H]2CC[C@]2(C)C(=O)[C@H](Br)C[C@@H]12", "Ki": 150}
{"biological_target": "T1, Aromatase", "experiment": "(§3) Inhibition of aromatase (unknown origin)", "set-up": "inhibition (INH): concentration or dose not given beside the values", "conditions": "not given", "units": {"IC50": "nM", "Ki": "nM"}}
{"smiles": "COC(=O)C1=C(C)NC(C)=C(C(=O)OC)C1C[C@H]1C[C@@H]2[C@H](CC[C@]3(C)C(=O)CC[C@@H]23)[C@@]2(C)C=CC(=O)C=C12", "IC50": 10000}
{"smiles": "CC(=O)O[C@H]1[C@@H]2[C@H](CC[C@]3(C)C(=O)CC[C@@H]23)[C@@]2(C)CCC(=O)C=C2[C@@H]1N=[N+]=[N-]", "IC50": 400}
{"smiles": "C[C@]12CC[C@H]3[C@@H](CCC4=CC(=O)CC[C@@]43[C@@H]3CN3)[C@@H]1CC[C@@H]2O", "Ki": 3.4}
{"smiles": "C[C@]12CC[C@H]3[C@@H](CCC4=CC(=O)CC[C@@]43[C@@H]3CN3)[C@@H]1CCC2=O", "Ki": 3.4}
{"smiles": "CC1(C)C[C@@]2(C)C(=CC1=O)C(=O)C[C@@H]1[C@@H]2CC[C@]2(C)C(=O)CC[C@@H]12", "Ki": 25}
{"smiles": "C[C@]12CC[C@H]3[C@@H](CCC4=CC(=O)CC[C@@]43[C@H]3CN3)[C@@H]1CC[C@@H]2O", "Ki": 3.4}
{"smiles": "CC1(C)C[C@@]2(C)C(=C(O)C1=O)C(=O)C[C@@H]1[C@@H]2CC[C@]2(C)C(=O)CC[C@@H]12", "Ki": 40}
{"smiles": "C[C@]12CC[C@H]3[C@@H](CCC4=CC(=O)CC[C@@]43[C@H]3CN3)[C@@H]1CCC2=O", "Ki": 3.4}
{"smiles": "C[C@]12CCC(=O)C(O)=C1C(=O)C[C@@H]1[C@@H]2CC[C@]2(C)C(=O)CC[C@@H]12", "Ki": 42}
{"biological_target": "T1, Aromatase", "experiment": "as §3", "set-up": "inhibition (INH): concentration or dose not given beside the values", "conditions": "human", "units": {"inhibition (INH)": "%"}}
{"smiles": "CC(=O)[C@@]1(C)CC[C@H]2[C@@H](CCC3=C(O)C(=O)CC[C@@]32C)C1CC#N", "note": "(some centres undefined)", "inhibition (INH)": 46.5}
{"smiles": "C[C@]12CC[C@H]3[C@@H](CC[C@H]4CC(=O)C[C@H]5[C@@H](O)[C@]435)[C@@H]1CCC2=O", "inhibition (INH)": 40}
{"smiles": "CC(=O)O[C@@H]1[C@@H]2CC(=O)C[C@@H]3CC[C@@H]4[C@H](CC[C@]5(C)C(=O)CC[C@@H]45)[C@@]312", "inhibition (INH)": 40}
{"smiles": "C[C@]12CC[C@H]3[C@@H](CC[C@H]4C[C@@]5(O)C[C@H]6[C@H](O5)[C@]436)[C@@H]1CCC2=O", "inhibition (INH)": 40}
{"biological_target": "T1, Aromatase", "conditions": "not given", "remark": "another data set of the same source", "units": {"Ki": "nM"}}
{"smiles": "C[C@]12CCC(=O)C=C1C=C(c1ccccc1)[C@@H]1[C@@H]2CC[C@]2(C)C(=O)CC[C@@H]12", "Ki": 1420}
{"smiles": "C[C@]12CC[C@H]3[C@@H](CCC4=CCCC[C@@]43CO)[C@@H]1CC[C@@H]2O", "Ki": 170}
{"smiles": "C[C@]12C=CC(=O)C=C1C[C@@H](CCCc1ccccc1)[C@@H]1[C@@H]2CC[C@]2(C)C(=O)CC[C@@H]12", "Ki": 7}
{"smiles": "C[C@]12CC[C@H]3[C@@H](CCC4=CCCC[C@@]43C(F)F)[C@@H]1CCC2=O", "Ki": 170}
{"smiles": "CCCSC1=C2CC[C@@H]3[C@H](CC[C@]4(C)C(=O)CC[C@@H]34)[C@@]2(C)CCC1=O", "Ki": 36}
{"smiles": "CC(=O)SC1=C2CC[C@@H]3[C@H](CC[C@]4(C)C(=O)CC[C@@H]34)[C@@]2(C)CCC1=O", "Ki": 36}
{"smiles": "C[C@]12C=CC(=O)C=C1C[C@@H](Cc1ccccc1)[C@@H]1[C@@H]2CC[C@]2(C)C(=O)CC[C@@H]12", "Ki": 7}
{"smiles": "C[C@]12CC[C@H]3[C@@H]([C@H]4[C@@H](C5=CCCC[C@@]53C)C4(F)F)[C@@H]1CC[C@@H]2O", "Ki": 5}
{"smiles": "C[C@]12CCC(=O)C=C1C[C@H](Cc1ccccc1)[C@@H]1[C@@H]2CC[C@]2(C)C(=O)CC[C@@H]12", "Ki": 36}
{"smiles": "C[C@]12CCC(=O)C=C1C=C(Cc1ccccc1)[C@@H]1[C@@H]2CC[C@]2(C)C(=O)CC[C@@H]12", "Ki": 60.9}
{"smiles": "CCSC1=C2CC[C@@H]3[C@H](CC[C@]4(C)C(=O)CC[C@@H]34)[C@@]2(C)CCC1=O", "Ki": 36}
{"smiles": "C[C@]12CCC(=O)C=C1[C@@H]1[C@H]([C@@H]3[C@@H]2CC[C@]2(C)C(=O)CC[C@@H]32)C1(F)F", "Ki": 5}
{"smiles": "C[C@]12CCC(=O)C=C1C[C@@H](CCc1ccccc1)[C@@H]1[C@@H]2CC[C@]2(C)C(=O)CC[C@@H]12", "Ki": 13.1}
{"smiles": "C[C@]12CCC(=O)C=C1C=C(CCc1ccccc1)[C@@H]1[C@@H]2CC[C@]2(C)C(=O)CC[C@@H]12", "Ki": 60.9}
{"smiles": "C[C@]12CCC(=O)C=C1C[C@@H](Cc1ccccc1)[C@@H]1[C@@H]2CC[C@]2(C)C(=O)CC[C@@H]12", "Ki": 18.9}
{"smiles": "C[C@]12CC[C@H]3[C@@H]([C@H](Cc4ccccc4)CC4=CC(=O)CC[C@@]43C)[C@@H]1CC[C@@H]2O", "Ki": 36}
{"smiles": "C[C@]12CCCC=C1[C@@H]1[C@H]([C@@H]3[C@@H]2CC[C@]2(C)C(=O)CC[C@@H]32)C1(F)F", "Ki": 5}
{"smiles": "C[C@]12C=CC(=O)C=C1C[C@@H](CCc1ccc([N+](=O)[O-])cc1)[C@@H]1[C@@H]2CC[C@]2(C)C(=O)CC[C@@H]12", "Ki": 7}
{"smiles": "C#C[C@@H](OC(C)=O)[C@@]12CCC(=O)C=C1C(=O)C[C@@H]1[C@@H]2CC[C@]2(C)C(=O)CC[C@@H]12", "Ki": 75000}
{"smiles": "C#C[C@H](OC(C)=O)[C@]12CCC(=O)C=C1C(=O)C[C@@H]1[C@@H]2CC[C@]2(C)C(=O)CC[C@@H]12", "Ki": 67000}
{"smiles": "C[C@]12CCC(=O)C=C1C[C@H](CCc1ccccc1)[C@@H]1[C@@H]2CC[C@]2(C)C(=O)CC[C@@H]12", "Ki": 36}
{"smiles": "C[C@]12CCCC=C1CC[C@@H]1[C@@H]2CC[C@]2(C)C(=O)[C@H](Br)C[C@@H]12", "Ki": 228}
{"smiles": "C[C@]12C=CC(=O)C=C1C[C@@H](CCc1ccccc1)[C@@H]1[C@@H]2CC[C@]2(C)C(=O)CC[C@@H]12", "Ki": 7}
{"smiles": "C[C@]12C=CC(=O)C=C1C[C@@H](CCCc1ccc([N+](=O)[O-])cc1)[C@@H]1[C@@H]2CC[C@]2(C)C(=O)CC[C@@H]12", "Ki": 7}
{"smiles": "C[C@]12CCC(=O)C(OCc3ccccc3)=C1CC[C@@H]1[C@@H]2CC[C@]2(C)C(=O)CC[C@@H]12", "Ki": 38}
{"smiles": "CSC1=C2CC[C@@H]3[C@H](CC[C@]4(C)C(=O)CC[C@@H]34)[C@@]2(C)CCC1=O", "Ki": 36}
{"smiles": "C[C@]12CCCC=C1CC[C@@H]1[C@@H]2CC[C@]2(C)C(=O)[C@@H](Br)C[C@@H]12", "Ki": 455}
{"smiles": "C[C@]12C=CC(=O)C=C1C[C@@H](CCc1ccc(N)cc1)[C@@H]1[C@@H]2CC[C@]2(C)C(=O)CC[C@@H]12", "Ki": 7}
